Legend:
B16.F10 tumors = assay: Intratumoral treatment of established B16.F10 tumors; format: in vivo, mouse; conditions: for injection site reactogenicity: three IT injections; for effect on tumor growth: WT C57BL/6 mice, three IT injections over a one-week period
Procedure: (§1) In vivo tumor experiments. 10^6 of B16-SIY tumor cells, 5×10^4 B16.F10 tumor cells, 10^5 4T1 and CT26, or 10^6 other tumor cells were injected s.c. in 100 μl DPBS or HBSS on the right flank of mice. Following tumor implantation, mice were randomized into treatment groups. […] Measurements of tumors were performed twice per week using calipers, and the tumor volume was calculated with the formula: V=(length×width^2)/2. In some experiments, tumor-free survivors were rechallenged with tumor cells on the opposite flank several weeks after the injection of the primary tumor. Naïve mice were used as controls. For the contralateral experiments, mice were implanted on both flanks and only one tumor was treated. For the B16 melanoma lung metastasis experiments, mice were implanted on the flank with 5×10^4 cells B16.F10 on day 0, and then injected intravenously with 1×10^5 cells on day 7. Lungs were harvested on day 28. Administration of compounds, measurements of tumors and counting of lung tumors were performed in a blinded fashion.

[1] = tested on: five hSTING alleles (WT, REF, HAQ, AQ and Q); assay: IFN-β luciferase reporter assay in HEK 293T cells expressing hSTING variants; format: cell-based, human; conditions: 10 μM CDN, 6 hours
Procedure: (§2) Luciferase Assay. […] After 20 min, stimulation mixtures were removed and normal media was added. After a total of 6 hours, cell lysates were prepared and reporter gene activity measured using the Dual Luciferase Assay System (Promega) on a Spectramax M3 luminometer.

[2] = tested on: murine bone marrow macrophages (BMMs); assay: qRT-PCR of IFN-β and cytokines in bone marrow macrophages stimulated with CDNs; format: cell-based, mouse; conditions: WT C57BL/6 BMMs, 5 μM, 6 hours; compared to ML-cGAMP, poly I:C and LPS on a molar equivalent basis
Procedure: WT BMM were stimulated with CDN at 5 μM in HBSS with the addition of Effectene (Qiagen) transfection reagent (per kit protocol). […] After a 6 hr incubation, cells were harvested and assessed by real-time qRT-PCR for gene expression of IFN-β1, MCP-1, TNF-α) and IL-6 using the PrimePCR RNA purification and cDNA analysis system, and run on the CFX96 gene cycler (BioRad).

hSTING^REF = target: T1, hSTING^REF (Homo sapiens, UniProt Q86WV6); assay: IFN-β luciferase reporter assay in HEK 293T cells expressing hSTING REF; format: cell-based; conditions: 10 μM CDN, 6 hours
T1 construct: expressing each of the full length hSTING variants; expressed in transfected cells; host or cells: HEK 293T (deficient in endogenous STING), MSCV2.2 retroviral transduction
T1 sequence (Q86WV6 whole entry): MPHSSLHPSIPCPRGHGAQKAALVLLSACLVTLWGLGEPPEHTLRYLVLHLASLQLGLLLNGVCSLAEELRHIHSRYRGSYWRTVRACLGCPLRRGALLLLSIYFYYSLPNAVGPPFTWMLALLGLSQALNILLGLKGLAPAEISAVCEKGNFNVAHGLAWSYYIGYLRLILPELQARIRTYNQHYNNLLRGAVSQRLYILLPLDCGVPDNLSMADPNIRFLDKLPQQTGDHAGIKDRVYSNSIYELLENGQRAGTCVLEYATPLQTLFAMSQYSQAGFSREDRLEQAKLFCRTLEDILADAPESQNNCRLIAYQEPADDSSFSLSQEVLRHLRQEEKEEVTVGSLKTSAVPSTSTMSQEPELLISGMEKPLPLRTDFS
Procedure: as §2

[3] = tested on: STING pathway (TBK1, IRF3 phosphorylation); assay: Western blot of pTBK1 and pIRF3 in macrophages and BM-DCs after STING agonist; format: cell-based, mouse; conditions: WT macrophages; DMXAA 50 μg/ml or ML RR-S2 CDA 50 μM
Procedure: DMXAA for the same time-points. Proteins were extracted with Triton-X buffer (150 mM sodium chloride, 50 mM Tris, 1% Triton-X, pH 8.0) with proteinase inhibitors (Thermo scientific) and phosphatase inhibitors (Sigma). 30 μg of protein was electrophoresed in 10% SDS-PAGE gels and transferred onto Immobilon-FL membranes (Millipore). Blots were incubated with antibodies specific for phosphorylated TBK1 (Ser172), phosphorylated IRF3 (Ser396), total TBK1, STING and GAPDH (Cell Signaling) or total IRF3 (Invitrogen). Proteins from HEK 293T lines stably expressing STING were extracted with M-PER (Thermo Scientific). 6 μg of protein was loaded onto a 4-12% MES NuPAGE gel (Life Technologies), transferred to nitrocellulose, and probed with anti-HA antibody (Santa Cruz). Anti-rabbit IRDye 680RD label secondary antibody was used for visualization of bands with the Odyssey Imaging system (LI-COR).

4T-1 tumors = assay: Intratumoral treatment of 4T-1 tumors; format: in vivo, mouse
Procedure: as §1

CT26 colon carcinoma = assay: Intratumoral treatment of CT26 colon carcinoma; format: in vivo, mouse
Procedure: as §1

B16.F10 lung metastases = assay: B16 melanoma lung metastasis experiment; format: in vivo, mouse; conditions: flank tumor treated IT, ML RR-S2 CDA 50 μg versus DMXAA 150 μg
Procedure: as §1

[4] = tested on: CT26 rejection antigen AH1; assay: IFN-γ ELISPOT against AH1 in CT26-bearing mice; format: in vivo, mouse; conditions: 21 days post-implantation
Procedure: IFN-γ ELISPOT and SIY-pentamer staining. […] […] Spots were developed using the BD mouse IFN-γ kit according to the manufacturer's instructions and the number of spots was measured using an Immunospot Series 3 Analyzer and analyzed using ImmunoSpot software (Cellular Technology Ltd). For SIY-pentamer staining, splenocytes were preincubated for 15 min with anti-CD16/32 monoclonal antibody (93) to block potential nonspecific binding, and labeled with PE-MHC class I pentamer (Proimmune) consisting of murine H-2K^b complexed to […] (SIY) peptide, anti-TCRβ-AF700 (H57-597), anti-CD8-Pacific Blue (53-6.7), anti-CD4-Pacific Orange (RM4-5) (all antibodies from BioLegend) and the Fixable Viability Dye eFluor 450 (eBioscience). Stained cells were analyzed using LSR II cytometer with FACSDiva software (BD). Data analysis was conducted with FlowJo software (Tree Star).

[5] = BALB/c mice, three IT doses of 50 μg
[6] = bilateral tumors, IT injection into one tumor
[7] = mice cured of their primary tumor

SMILES: Nc1nc2c(ncn2[C@@H]2O[C@@H]3CO[P@@](=O)(S)O[C@@H]4[C@H](O)[C@@H](CO[P@@](=O)(S)O[C@H]3[C@H]2O)O[C@H]4n2cnc3c(=O)[nH]c(N)nc32)c(=O)[nH]1 [ML RR-S2 CDG]
- efficacy at lower dose levels (B16.F10 tumors; lower dose levels): not efficacious
- therapeutic index (B16.F10 tumors; mouse, in vivo): narrow therapeutic index
- injection site reactogenicity (B16.F10 tumors): reactogenic
- IFN-β reporter activation [1]: potently activated all five hSTING alleles
- expression of pro-inflammatory cytokines (IFN-β) [2]: highest expression of pro-inflammatory cytokines

SMILES: Nc1ncnc2c1ncn2[C@@H]1O[C@@H]2COP(=O)(O)O[C@H]3[C@@H](O)[C@H](n4cnc5c(N)ncnc54)O[C@@H]3COP(=O)(O)O[C@H]2[C@H]1O [CDA]
- IFN-β reporter responsiveness (hSTING^REF): responded poorly

SMILES: Nc1nc2c(ncn2[C@@H]2O[C@@H]3COP(=O)(O)O[C@H]4[C@@H](O)[C@H](n5cnc6c(=O)[nH]c(N)nc65)O[C@@H]4COP(=O)(O)O[C@H]3[C@H]2O)c(=O)[nH]1 [CDG]
- IFN-β reporter responsiveness (hSTING^REF): responded poorly

SMILES: Nc1ncnc2c1ncn2[C@@H]1O[C@@H]2COP(O)(=S)O[C@@H]3C(O)[C@@H](COP(O)(=S)O[C@H]2[C@H]1O)O[C@H]3n1cnc2c(N)ncnc21 (stereo partly shown) [ML RR-S2 CDA, dithio-(Rp, Rp)-[cyclic[A(2′,5′)pA(3′,5′)p]]]
- phosphorylation of TBK1 and IRF3 [3]: induce phosphorylation of TBK1 and IRF3
- potency compared to CpG-based TLR9 agonists and multiple other TLR agonists (B16.F10 tumors; given IT at the same doses (50 μg)): significantly increased potency
- injection site reactogenicity (B16.F10 tumors): no injection site reactogenicity
- tumor regression (4T-1 tumors; [5]): significant and durable tumor regression
- regression of the contralateral untreated tumor (4T-1 tumors; [6]): significant regression of the contralateral untreated tumor
- resistance to re-challenge (4T-1 tumors; [7]): completely resistant to re-challenge
- tumor regression (CT26 colon carcinoma; [5]): significant and durable tumor regression
- regression of the contralateral untreated tumor (CT26 colon carcinoma; [6]): significant regression of the contralateral untreated tumor
- resistance to re-challenge (CT26 colon carcinoma; [7]): completely resistant to re-challenge
- inhibition of growth of distant lung metastases (B16.F10 lung metastases): more significant inhibition of growth of distant lung metastases than DMXAA
- immune responses against AH1 (IFN-γ ELISPOT) [4]: improved immune responses
- IFN-β reporter activation [1]: potently activated all five hSTING alleles
- expression of pro-inflammatory cytokines (IFN-β) [2]: highest expression of pro-inflammatory cytokines

SMILES: Nc1ncnc2c1ncn2C1OC2COP(=O)(O)OC3C(O)C(COP(=O)(O)OC2C1O)OC3n1cnc2c(N)ncnc21 (stereo not shown) [ML-CDA]
- effect on tumor growth (B16.F10 tumors): modest effects on tumor growth

SMILES: Nc1nc2c(ncn2C2OC3COP(=O)(O)OC4C(O)C(COP(=O)(O)OC3C2O)OC4n2cnc3c(=O)[nH]c(N)nc32)c(=O)[nH]1 (stereo not shown) [ML-CDG]
- effect on tumor growth (B16.F10 tumors): modest effects on tumor growth
